Assay results reported in article PMC3117942 (2011).

Molecular target: T1, RARγ (Homo sapiens, UniProt P13631)
T1 sequence (P13631 185-419 limits assumed): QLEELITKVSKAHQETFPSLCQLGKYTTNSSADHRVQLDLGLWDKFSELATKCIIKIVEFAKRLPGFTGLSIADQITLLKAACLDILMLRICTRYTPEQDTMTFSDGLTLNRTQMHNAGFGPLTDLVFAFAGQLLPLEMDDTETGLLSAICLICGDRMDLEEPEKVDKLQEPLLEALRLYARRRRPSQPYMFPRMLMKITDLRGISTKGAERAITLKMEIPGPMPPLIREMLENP
Experiment: Gal4-RARγ-LBD UAS-luciferase reporter in HEK293T, activation at […]
Assay type: cell-based
Details: hek293t cells

CC1=C(/C=C/C(C)=C/C=C/C(C)=C/C(=O)O)C(C)(C)CCC1 [ATRA, all-trans retinoic acid]
Gal4-RARγ-LBD UAS-luciferase reporter in HEK293T, activation at 1 nM (2.1 fold): 2.1 fold
